Measurements: ChEMBL document CHEMBL1268944, “The antiplasmodial activity of norcantharidin analogs” (Bioorg Med Chem Lett, 2010)

What was measured:
Plasmodium falciparum [1] = assay: Antiplasmodial activity against chloroquine-sensitive Plasmodium falciparum D6 assessed as inhibition of parasite LDH activity after 72 hrs by malstat reagent method; format: functional, organism-based; conditions: D6, 72 h
Plasmodium falciparum [2] = assay: Ratio of Norcantharidin IC50 to compound IC50 for chloroquine-sensitive Plasmodium falciparum D6; format: functional
Plasmodium falciparum [3] = assay: Ratio of Norcantharidin IC50 to compound IC50 for chloroquine-resistant Plasmodium falciparum W2; format: functional
Plasmodium falciparum [4] = assay: Antiplasmodial activity against chloroquine-resistant Plasmodium falciparum W2 assessed as inhibition of parasite LDH activity […] after 72 hrs by malstat reagent method; format: functional, organism-based; conditions: W2, 72 h
[5] = Inhibition of human PP1
[6] = Inhibition of human PP2A
[7] = Inhibition of human PP1 expressed in Escherichia coli BL21
[8] = Inhibition of human PP2A expressed in Escherichia coli BL21

In the case of `C=CCNC(=O)C1C(C(=O)O)[C@@H]2CC[C@H]1O2` (some centres undefined), the IC50 (Plasmodium falciparum [1]) is reported as 3 µM, the “Ratio IC50” value (Plasmodium falciparum [2]) is reported as 20 and the “Ratio IC50” value (Plasmodium falciparum [3]) is reported as 20. The IC50 (Plasmodium falciparum [4]) was 3 µM, the IC50 [5] was 40 µM and the IC50 [6] was 10 µM.

`O=C1OC(=O)C2C3CCC(O3)C12` (centres undefined) [DEMETHYL-CANTHARIDIN] gave an IC50 (Plasmodium falciparum [1]) of 60 µM, an IC50 (Plasmodium falciparum [4]) of 50 µM and an IC50 [7] of 2 µM. It also gave an IC50 [8] of 0.4 µM.

Compound `C[C@@]12C(=O)OC(=O)[C@]1(C)[C@H]1CC[C@@H]2O1` [CANTHARIDIN] has an IC50 (Plasmodium falciparum [1]) of 9 µM, an IC50 (Plasmodium falciparum [4]) of 9 µM and an IC50 [7] of 1.8 µM. For the same compound, the IC50 [8] was 0.2 µM.
